Measured values from the supplement of paper PMC10307832.

Key:
Assay in all cases: relative viability (nuclei count vs DMSO), 5 days (fraction); higher = more cells survive
Adavosertib + OSI-027 = compound: C=CCn1c(=O)c2cnc(Nc3ccc(N4CCN(C)CC4)cc3)nc2n1-c1cccc(C(C)(C)O)n1 [Adavosertib] + COc1cccc2cc(-c3nc([C@H]4CC[C@H](C(=O)O)CC4)n4ncnc(N)c34)[nH]c12 [OSI-027] (partner 0.5 µM)
How it was run: (§1)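 Lung cancer cell lines in 1536-well plates got either a single drug or a fixed anchor-drug dose together with five library-drug doses (not always all listed) in √10 steps, by pin tool, on the day after seeding. Nuclei were counted after 5 days, and relative viability is the treated-to-vehicle ratio of nuclei counts. Values are medians of duplicate plates.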

Adavosertib + Linsitinib = compound: C=CCn1c(=O)c2cnc(Nc3ccc(N4CCN(C)CC4)cc3)nc2n1-c1cccc(C(C)(C)O)n1 [Adavosertib] + C[C@]1(O)C[C@@H](c2nc(-c3ccc4ccc(-c5ccccc5)nc4c3)c3c(N)nccn32)C1 [Linsitinib] (partner 1 µM)
How it was run: as §1

Adavosertib + Phenformin = compound: C=CCn1c(=O)c2cnc(Nc3ccc(N4CCN(C)CC4)cc3)nc2n1-c1cccc(C(C)(C)O)n1 [Adavosertib] + N=C(N)NC(=N)NCCc1ccccc1 [Phenformin] (partner 250 µM)
How it was run: as §1

Nelarabine + Luminespib = compound: COc1nc(N)nc2c1ncn2[C@@H]1O[C@H](CO)[C@@H](O)[C@@H]1O [Nelarabine] + CCNC(=O)c1noc(-c2cc(C(C)C)c(O)cc2O)c1-c1ccc(CN2CCOCC2)cc1 [Luminespib] (partner 0.01 µM)
How it was run: as §1

Cell Line: A-427
- relative viability (Adavosertib + OSI-027; first compound 0.01 µM): 0.472
- relative viability (Adavosertib + OSI-027; first compound 0.03162 µM): 0.411
- relative viability (Adavosertib + OSI-027; first compound 0.1 µM): 0.481
- relative viability (Adavosertib + OSI-027; first compound 0.3162 µM): 0.268
- relative viability (Adavosertib + Linsitinib; first compound 0.01 µM): 1.09
- relative viability (Adavosertib + Linsitinib; first compound 0.03162 µM): 1.05
- relative viability (Adavosertib + Linsitinib; first compound 0.1 µM): 1.05
- relative viability (Adavosertib + Linsitinib; first compound 0.3162 µM): 1.03
- relative viability (Adavosertib + Phenformin; first compound 0.01 µM): 0.337
- relative viability (Adavosertib + Phenformin; first compound 0.03162 µM): 0.289
- relative viability (Adavosertib + Phenformin; first compound 0.1 µM): 0.297
- relative viability (Adavosertib + Phenformin; first compound 0.3162 µM): 0.255
- relative viability (Nelarabine + Luminespib; first compound 0.01 µM): 0.96
- relative viability (Nelarabine + Luminespib; first compound 0.03162 µM): 0.982
- relative viability (Nelarabine + Luminespib; first compound 0.1 µM): 0.721
- relative viability (Nelarabine + Luminespib; first compound 0.3162 µM): 0.964
- relative viability (Nelarabine + Luminespib; first compound 1 µM): 0.983

Cell Line: NCI-H1651
- relative viability (Adavosertib + OSI-027; first compound 0.01 µM): 0.577
- relative viability (Adavosertib + OSI-027; first compound 0.03162 µM): 0.571
- relative viability (Adavosertib + OSI-027; first compound 0.1 µM): 0.781
- relative viability (Adavosertib + OSI-027; first compound 0.3162 µM): 0.539
- relative viability (Adavosertib + Linsitinib; first compound 0.01 µM): 1.03
- relative viability (Adavosertib + Linsitinib; first compound 0.03162 µM): 1.02
- relative viability (Adavosertib + Linsitinib; first compound 0.1 µM): 0.98
- relative viability (Adavosertib + Linsitinib; first compound 0.3162 µM): 0.783
- relative viability (Adavosertib + Phenformin; first compound 0.01 µM): 0.3
- relative viability (Adavosertib + Phenformin; first compound 0.03162 µM): 0.354
- relative viability (Adavosertib + Phenformin; first compound 0.1 µM): 0.31
- relative viability (Adavosertib + Phenformin; first compound 0.3162 µM): 0.237
- relative viability (Nelarabine + Luminespib; first compound 0.01 µM): 1.01
- relative viability (Nelarabine + Luminespib; first compound 0.03162 µM): 0.953
- relative viability (Nelarabine + Luminespib; first compound 0.1 µM): 0.822
- relative viability (Nelarabine + Luminespib; first compound 0.3162 µM): 0.985
- relative viability (Nelarabine + Luminespib; first compound 1 µM): 0.856

Cell Line: SK-LU-1
- relative viability (Adavosertib + OSI-027; first compound 0.01 µM): 0.394
- relative viability (Adavosertib + OSI-027; first compound 0.03162 µM): 0.324
- relative viability (Adavosertib + OSI-027; first compound 0.1 µM): 0.296
- relative viability (Adavosertib + OSI-027; first compound 0.3162 µM): 0.182
- relative viability (Adavosertib + Linsitinib; first compound 0.01 µM): 1.19
- relative viability (Adavosertib + Linsitinib; first compound 0.03162 µM): 1.02
- relative viability (Adavosertib + Linsitinib; first compound 0.1 µM): 0.77
- relative viability (Adavosertib + Linsitinib; first compound 0.3162 µM): 0.334
- relative viability (Adavosertib + Phenformin; first compound 0.01 µM): 0.57
- relative viability (Adavosertib + Phenformin; first compound 0.03162 µM): 0.484
- relative viability (Adavosertib + Phenformin; first compound 0.1 µM): 0.458
- relative viability (Adavosertib + Phenformin; first compound 0.3162 µM): 0.223
- relative viability (Nelarabine + Luminespib; first compound 0.01 µM): 0.225
- relative viability (Nelarabine + Luminespib; first compound 0.03162 µM): 0.154
- relative viability (Nelarabine + Luminespib; first compound 0.1 µM): 0.215
- relative viability (Nelarabine + Luminespib; first compound 0.3162 µM): 0.199
- relative viability (Nelarabine + Luminespib; first compound 1 µM): 0.223

Cell Line: BEN
- relative viability (Adavosertib + OSI-027; first compound 0.01 µM): 0.293
- relative viability (Adavosertib + OSI-027; first compound 0.03162 µM): 0.333
- relative viability (Adavosertib + OSI-027; first compound 0.1 µM): 0.297
- relative viability (Adavosertib + OSI-027; first compound 0.3162 µM): 0.273
- relative viability (Adavosertib + Linsitinib; first compound 0.01 µM): 0.97
- relative viability (Adavosertib + Linsitinib; first compound 0.03162 µM): 0.886
- relative viability (Adavosertib + Linsitinib; first compound 0.1 µM): 0.921
- relative viability (Adavosertib + Linsitinib; first compound 0.3162 µM): 1.06
- relative viability (Adavosertib + Phenformin; first compound 0.01 µM): 0.277
- relative viability (Adavosertib + Phenformin; first compound 0.03162 µM): 0.261
- relative viability (Adavosertib + Phenformin; first compound 0.1 µM): 0.299
- relative viability (Adavosertib + Phenformin; first compound 0.3162 µM): 0.25
- relative viability (Nelarabine + Luminespib; first compound 0.01 µM): 0.323
- relative viability (Nelarabine + Luminespib; first compound 0.03162 µM): 0.131
- relative viability (Nelarabine + Luminespib; first compound 0.1 µM): 0.371
- relative viability (Nelarabine + Luminespib; first compound 0.3162 µM): 0.488
- relative viability (Nelarabine + Luminespib; first compound 1 µM): 0.331

Cell Line: NCI-H1915
- relative viability (Adavosertib + OSI-027; first compound 0.01 µM): 0.677
- relative viability (Adavosertib + OSI-027; first compound 0.03162 µM): 0.606
- relative viability (Adavosertib + OSI-027; first compound 0.1 µM): 0.69
- relative viability (Adavosertib + OSI-027; first compound 0.3162 µM): 0.586
- relative viability (Adavosertib + Linsitinib; first compound 0.01 µM): 1.11
- relative viability (Adavosertib + Linsitinib; first compound 0.03162 µM): 1.12
- relative viability (Adavosertib + Linsitinib; first compound 0.1 µM): 1.14
- relative viability (Adavosertib + Linsitinib; first compound 0.3162 µM): 1.17
- relative viability (Adavosertib + Phenformin; first compound 0.01 µM): 0.364
- relative viability (Adavosertib + Phenformin; first compound 0.03162 µM): 0.367
- relative viability (Adavosertib + Phenformin; first compound 0.1 µM): 0.388
- relative viability (Adavosertib + Phenformin; first compound 0.3162 µM): 0.365
- relative viability (Nelarabine + Luminespib; first compound 0.01 µM): 1.31
- relative viability (Nelarabine + Luminespib; first compound 0.03162 µM): 0.87
- relative viability (Nelarabine + Luminespib; first compound 0.1 µM): 0.912
- relative viability (Nelarabine + Luminespib; first compound 0.3162 µM): 0.841
- relative viability (Nelarabine + Luminespib; first compound 1 µM): 0.988

Cell Line: COR-L23
- relative viability (Adavosertib + OSI-027; first compound 0.01 µM): 0.858
- relative viability (Adavosertib + OSI-027; first compound 0.03162 µM): 0.745
- relative viability (Adavosertib + OSI-027; first compound 0.1 µM): 0.717
- relative viability (Adavosertib + OSI-027; first compound 0.3162 µM): 0.349
- relative viability (Adavosertib + Linsitinib; first compound 0.01 µM): 0.965
- relative viability (Adavosertib + Linsitinib; first compound 0.03162 µM): 0.904
- relative viability (Adavosertib + Linsitinib; first compound 0.1 µM): 0.745
- relative viability (Adavosertib + Linsitinib; first compound 0.3162 µM): 0.209
- relative viability (Adavosertib + Phenformin; first compound 0.01 µM): 0.433
- relative viability (Adavosertib + Phenformin; first compound 0.03162 µM): 0.465
- relative viability (Adavosertib + Phenformin; first compound 0.1 µM): 0.442
- relative viability (Adavosertib + Phenformin; first compound 0.3162 µM): 0.267
- relative viability (Nelarabine + Luminespib; first compound 0.01 µM): 0.973
- relative viability (Nelarabine + Luminespib; first compound 0.03162 µM): 0.796
- relative viability (Nelarabine + Luminespib; first compound 0.1 µM): 0.576
- relative viability (Nelarabine + Luminespib; first compound 0.3162 µM): 0.906
- relative viability (Nelarabine + Luminespib; first compound 1 µM): 0.869

Cell Line: NCI-H1975
- relative viability (Adavosertib + OSI-027; first compound 0.01 µM): 0.733
- relative viability (Adavosertib + OSI-027; first compound 0.03162 µM): 0.644
- relative viability (Adavosertib + OSI-027; first compound 0.1 µM): 0.606
- relative viability (Adavosertib + OSI-027; first compound 0.3162 µM): 0.493
- relative viability (Adavosertib + Linsitinib; first compound 0.01 µM): 1
- relative viability (Adavosertib + Linsitinib; first compound 0.03162 µM): 0.951
- relative viability (Adavosertib + Linsitinib; first compound 0.1 µM): 0.891
- relative viability (Adavosertib + Linsitinib; first compound 0.3162 µM): 0.522
- relative viability (Adavosertib + Phenformin; first compound 0.01 µM): 0.419
- relative viability (Adavosertib + Phenformin; first compound 0.03162 µM): 0.392
- relative viability (Adavosertib + Phenformin; first compound 0.1 µM): 0.389
- relative viability (Adavosertib + Phenformin; first compound 0.3162 µM): 0.309
- relative viability (Nelarabine + Luminespib; first compound 0.01 µM): 0.237
- relative viability (Nelarabine + Luminespib; first compound 0.03162 µM): 0.244
- relative viability (Nelarabine + Luminespib; first compound 0.1 µM): 0.169
- relative viability (Nelarabine + Luminespib; first compound 0.3162 µM): 0.198
- relative viability (Nelarabine + Luminespib; first compound 1 µM): 0.464

Cell Line: RERF-LC-KJ
- relative viability (Adavosertib + OSI-027; first compound 0.01 µM): 0.561
- relative viability (Adavosertib + OSI-027; first compound 0.03162 µM): 0.512
- relative viability (Adavosertib + OSI-027; first compound 0.1 µM): 0.555
- relative viability (Adavosertib + OSI-027; first compound 0.3162 µM): 0.465
- relative viability (Adavosertib + Linsitinib; first compound 0.01 µM): 0.925
- relative viability (Adavosertib + Linsitinib; first compound 0.03162 µM): 0.921
- relative viability (Adavosertib + Linsitinib; first compound 0.1 µM): 0.848
- relative viability (Adavosertib + Linsitinib; first compound 0.3162 µM): 0.796
- relative viability (Adavosertib + Phenformin; first compound 0.01 µM): 0.363
- relative viability (Adavosertib + Phenformin; first compound 0.03162 µM): 0.381
- relative viability (Adavosertib + Phenformin; first compound 0.1 µM): 0.4
- relative viability (Adavosertib + Phenformin; first compound 0.3162 µM): 0.439
- relative viability (Nelarabine + Luminespib; first compound 0.01 µM): 1.41
- relative viability (Nelarabine + Luminespib; first compound 0.03162 µM): 1.31
- relative viability (Nelarabine + Luminespib; first compound 0.1 µM): 1.34
- relative viability (Nelarabine + Luminespib; first compound 0.3162 µM): 1.27
- relative viability (Nelarabine + Luminespib; first compound 1 µM): 1.31

Cell Line: NCI-H2228
- relative viability (Adavosertib + OSI-027; first compound 0.01 µM): 0.509
- relative viability (Adavosertib + OSI-027; first compound 0.03162 µM): 0.651
- relative viability (Adavosertib + OSI-027; first compound 0.1 µM): 0.618
- relative viability (Adavosertib + OSI-027; first compound 0.3162 µM): 0.142
- relative viability (Adavosertib + Linsitinib; first compound 0.01 µM): 0.629
- relative viability (Adavosertib + Linsitinib; first compound 0.03162 µM): 0.623
- relative viability (Adavosertib + Linsitinib; first compound 0.1 µM): 0.76
- relative viability (Adavosertib + Linsitinib; first compound 0.3162 µM): 0.395
- relative viability (Adavosertib + Phenformin; first compound 0.01 µM): 0.252
- relative viability (Adavosertib + Phenformin; first compound 0.03162 µM): 0.27
- relative viability (Adavosertib + Phenformin; first compound 0.1 µM): 0.257
- relative viability (Adavosertib + Phenformin; first compound 0.3162 µM): 0.243
- relative viability (Nelarabine + Luminespib; first compound 0.01 µM): 0.182
- relative viability (Nelarabine + Luminespib; first compound 0.03162 µM): 0.156
- relative viability (Nelarabine + Luminespib; first compound 0.3162 µM): 0.161
- relative viability (Nelarabine + Luminespib; first compound 1 µM): 0.151
